Source: patent publication US9617267B2, “Compounds and methods for kinase modulation, and indications therefor” (Plexxikon Inc., priority 2009, dated 2017)
Like-named read-outs stand apart in the source and are kept apart here.

What was measured:
CYP2D6 = CYP2D6 (Homo sapiens (Human), UniProt P10635); assay: CYP enzyme inhibition, fluorescent substrate (AMMC); format: in vitro ADME; conditions: read-out: Cyp IC50 2D6
Method in brief: (§1)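 Ten-point 1:1 compound dilutions in NADPH-regenerating cofactor mix, pre-incubated 10 min at 37 °C before enzyme/substrate addition: CYP1A2 0.5 pmol with 5 μM CEC, 15 min, 409 ex/460 em; CYP2D6 1.5 pmol with 1.5 μM AMMC, 30 min, 409 ex/530 em. IC50 from fluorescent product vs concentration.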

CYP3A4(BQ) = CYP3A4(BQ) (Homo sapiens (Human), UniProt P08684); assay: CYP enzyme inhibition, fluorescent substrate BQ; conditions: read-out: Cyp IC50 3A4(BQ); CYP3A4, substrate BQ
Method in brief: (§2)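 Human CYP activity was followed by the fluorescence of the metabolized product of a known substrate, which falls as metabolism is inhibited. Compounds from 100 mM DMSO stocks were serially diluted 1:1 over 10 points in co-factor mix and preincubated 10 min at 37 °C. IC50 was fitted from signal versus concentration.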

[1] = Relative solubility by turbidity threshold concentration in aqueous buffers (pH 1.5, 4.5, 6.8, 7.4); format: physicochemical; conditions: for turbidity threshold (L, M, H) 1.4: pH 1.4 [sic] (method: SGF pH 1.5); for turbidity threshold (L, M, H) 4.5: pH 4.5 (SIF); for turbidity threshold (L, M, H) 6.8: pH 6.8 (SIF); for turbidity threshold (L, M, H) 7.4: pH 7.4 (HEPES)
Method in brief: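 Solubility class (high >250 μM, moderate 31.3–250 μM, low <31.3 μM) comes from the concentration where absorbance reaches a 0.01 threshold, averaged across 490/535/650 nm. Samples were compound dilutions from DMSO stock, 1 μL into 99 μL buffer at pH 1.5, 4.5, 6.8 or 7.4.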

CYP3A4(BFC) = CYP3A4(BFC) (Homo sapiens (Human), UniProt P08684); assay: CYP enzyme inhibition, fluorescent substrate BFC
Method in brief: as §2

c-Raf-1 = c-Raf-1 (Homo sapiens, UniProt P04049); assay: c-Raf-1 kinase activity biochemical assay (AlphaScreen, biotin-MEK1 phosphorylation)
Method in brief: (§3)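 Biotin-MEK1 phosphorylation measured after 45 min kinase reaction at RT with 100 μM ATP final; compounds tested at 8 points from 0.1 mM DMSO stock.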

B-Raf [2] = assay: B-Raf kinase activity biochemical assay (AlphaScreen, biotin-MEK1 phosphorylation); conditions: for Biochemical activity ratio B/V600E: ratio of IC50 B-Raf / B-Raf V600E; for Biochemical activity ratio B/C: ratio of IC50 B-Raf / c-Raf-1
Method in brief: as §3

B-Raf [3] = target: B-Raf (Homo sapiens (Human), UniProt P15056); assay: as above; conditions: B-Raf
Method in brief: as §3

CYP2C19 = CYP2C19 (Homo sapiens (Human), UniProt P33261); assay: CYP enzyme inhibition, fluorescent substrate (CEC)
Method in brief: as §2

B-Raf V600E = B-Raf V600E (Homo sapiens (Human), UniProt P15056, V600E); assay: B-Raf V600E kinase activity biochemical assay (AlphaScreen, biotin-MEK1 phosphorylation); conditions: for IC50: B-Raf V600E; for Biochemical activity ratio V600E/C: ratio of IC50 B-Raf V600E / c-Raf-1
Method in brief: as §3

CYP2C9 = CYP2C9 (Homo sapiens (Human), UniProt P11712); assay: CYP enzyme inhibition, fluorescent substrate (MFC)
Method in brief: as §2

CYP1A2 = CYP1A2 (Homo sapiens (Human), UniProt P05177); assay: CYP enzyme inhibition, fluorescent substrate (CEC)
Method in brief: as §1

[4] = read-out: Cyp IC50 3A4(BFC), CYP3A4, substrate BFC
[5] = read-out: Cyp IC50 2C19, CYP2C19, substrate CEC
[6] = read-out: Cyp IC50 2C9, CYP2C9, substrate MFC
[7] = read-out: Cyp IC50 1A2, CYP1A2, substrate CEC

Sequence of CYP3A4(BFC) (P08684 whole entry): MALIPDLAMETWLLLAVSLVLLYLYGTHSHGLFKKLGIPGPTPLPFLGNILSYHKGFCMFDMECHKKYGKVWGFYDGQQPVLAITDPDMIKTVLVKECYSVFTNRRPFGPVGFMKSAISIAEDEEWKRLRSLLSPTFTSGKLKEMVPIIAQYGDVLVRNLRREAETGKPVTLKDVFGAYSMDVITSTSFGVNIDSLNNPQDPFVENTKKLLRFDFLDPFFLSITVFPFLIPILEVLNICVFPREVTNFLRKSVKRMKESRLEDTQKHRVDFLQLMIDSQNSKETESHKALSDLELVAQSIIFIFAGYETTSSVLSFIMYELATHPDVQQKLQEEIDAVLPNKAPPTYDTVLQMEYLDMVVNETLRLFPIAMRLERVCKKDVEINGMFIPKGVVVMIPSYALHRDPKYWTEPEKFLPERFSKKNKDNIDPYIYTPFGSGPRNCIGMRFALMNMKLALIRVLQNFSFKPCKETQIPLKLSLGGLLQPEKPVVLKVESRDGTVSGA
Sequence of CYP3A4(BQ) (P08684 whole entry): as above
Sequence of CYP2D6 (P10635 whole entry): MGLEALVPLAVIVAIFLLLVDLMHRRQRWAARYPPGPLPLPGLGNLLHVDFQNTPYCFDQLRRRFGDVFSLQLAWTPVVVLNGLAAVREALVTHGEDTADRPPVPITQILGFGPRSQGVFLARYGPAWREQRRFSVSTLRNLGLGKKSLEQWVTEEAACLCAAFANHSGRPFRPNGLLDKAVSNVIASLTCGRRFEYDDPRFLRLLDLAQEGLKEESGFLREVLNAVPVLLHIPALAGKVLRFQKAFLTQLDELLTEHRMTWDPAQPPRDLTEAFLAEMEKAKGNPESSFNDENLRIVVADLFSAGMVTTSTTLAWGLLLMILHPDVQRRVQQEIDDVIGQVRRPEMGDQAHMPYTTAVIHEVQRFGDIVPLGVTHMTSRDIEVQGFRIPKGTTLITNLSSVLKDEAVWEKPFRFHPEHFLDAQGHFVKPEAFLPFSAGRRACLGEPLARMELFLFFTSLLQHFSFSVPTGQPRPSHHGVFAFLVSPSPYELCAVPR
Sequence of B-Raf (Homo sapiens (Human), UniProt P15056) (P15056 whole entry): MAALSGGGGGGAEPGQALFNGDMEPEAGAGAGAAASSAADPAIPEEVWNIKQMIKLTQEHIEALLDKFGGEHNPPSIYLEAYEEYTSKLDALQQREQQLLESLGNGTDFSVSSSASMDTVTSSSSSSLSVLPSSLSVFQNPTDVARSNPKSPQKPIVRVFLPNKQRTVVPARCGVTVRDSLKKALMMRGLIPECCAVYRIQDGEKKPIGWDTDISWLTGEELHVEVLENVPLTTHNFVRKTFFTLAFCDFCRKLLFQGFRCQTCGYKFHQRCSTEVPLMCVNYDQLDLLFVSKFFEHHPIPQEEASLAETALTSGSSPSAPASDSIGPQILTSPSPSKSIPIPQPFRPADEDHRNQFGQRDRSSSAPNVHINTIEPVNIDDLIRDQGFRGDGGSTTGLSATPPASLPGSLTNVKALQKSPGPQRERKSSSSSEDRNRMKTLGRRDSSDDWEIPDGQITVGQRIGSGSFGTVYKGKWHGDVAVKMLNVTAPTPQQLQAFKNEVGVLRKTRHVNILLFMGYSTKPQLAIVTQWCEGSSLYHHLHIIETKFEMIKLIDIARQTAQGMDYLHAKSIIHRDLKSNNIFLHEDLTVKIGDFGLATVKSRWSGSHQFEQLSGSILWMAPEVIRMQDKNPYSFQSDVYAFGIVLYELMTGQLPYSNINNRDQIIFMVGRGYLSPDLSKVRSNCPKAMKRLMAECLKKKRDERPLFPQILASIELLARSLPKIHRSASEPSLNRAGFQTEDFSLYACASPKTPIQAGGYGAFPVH
Sequence of CYP1A2 (P05177 whole entry): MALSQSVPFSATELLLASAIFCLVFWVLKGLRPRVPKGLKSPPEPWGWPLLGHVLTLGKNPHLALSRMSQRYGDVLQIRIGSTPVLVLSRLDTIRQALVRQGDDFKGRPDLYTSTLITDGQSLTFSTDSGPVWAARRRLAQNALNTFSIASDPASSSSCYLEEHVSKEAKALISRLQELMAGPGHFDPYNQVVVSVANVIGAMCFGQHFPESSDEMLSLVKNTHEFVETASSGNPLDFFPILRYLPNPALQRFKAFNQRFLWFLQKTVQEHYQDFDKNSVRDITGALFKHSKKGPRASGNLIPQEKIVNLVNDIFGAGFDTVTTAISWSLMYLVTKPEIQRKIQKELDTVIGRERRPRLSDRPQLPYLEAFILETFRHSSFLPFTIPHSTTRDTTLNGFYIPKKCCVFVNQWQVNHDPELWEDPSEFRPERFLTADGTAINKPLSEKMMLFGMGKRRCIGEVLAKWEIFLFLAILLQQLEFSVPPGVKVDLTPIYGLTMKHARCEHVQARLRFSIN
Sequence of CYP2C19 (P33261 whole entry): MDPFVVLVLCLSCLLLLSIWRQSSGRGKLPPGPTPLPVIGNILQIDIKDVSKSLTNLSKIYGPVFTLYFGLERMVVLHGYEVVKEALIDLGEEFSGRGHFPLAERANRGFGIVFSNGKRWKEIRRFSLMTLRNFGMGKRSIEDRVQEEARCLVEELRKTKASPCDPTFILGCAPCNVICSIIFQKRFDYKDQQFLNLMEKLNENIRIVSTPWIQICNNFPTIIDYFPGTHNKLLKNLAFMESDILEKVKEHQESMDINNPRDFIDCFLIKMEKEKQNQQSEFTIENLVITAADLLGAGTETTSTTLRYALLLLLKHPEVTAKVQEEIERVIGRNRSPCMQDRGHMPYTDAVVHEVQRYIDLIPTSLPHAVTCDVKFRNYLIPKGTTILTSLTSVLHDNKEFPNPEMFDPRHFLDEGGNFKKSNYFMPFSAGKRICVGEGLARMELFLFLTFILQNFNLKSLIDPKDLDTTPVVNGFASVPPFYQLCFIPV
Sequence of c-Raf-1 (P04049 whole entry, looked up): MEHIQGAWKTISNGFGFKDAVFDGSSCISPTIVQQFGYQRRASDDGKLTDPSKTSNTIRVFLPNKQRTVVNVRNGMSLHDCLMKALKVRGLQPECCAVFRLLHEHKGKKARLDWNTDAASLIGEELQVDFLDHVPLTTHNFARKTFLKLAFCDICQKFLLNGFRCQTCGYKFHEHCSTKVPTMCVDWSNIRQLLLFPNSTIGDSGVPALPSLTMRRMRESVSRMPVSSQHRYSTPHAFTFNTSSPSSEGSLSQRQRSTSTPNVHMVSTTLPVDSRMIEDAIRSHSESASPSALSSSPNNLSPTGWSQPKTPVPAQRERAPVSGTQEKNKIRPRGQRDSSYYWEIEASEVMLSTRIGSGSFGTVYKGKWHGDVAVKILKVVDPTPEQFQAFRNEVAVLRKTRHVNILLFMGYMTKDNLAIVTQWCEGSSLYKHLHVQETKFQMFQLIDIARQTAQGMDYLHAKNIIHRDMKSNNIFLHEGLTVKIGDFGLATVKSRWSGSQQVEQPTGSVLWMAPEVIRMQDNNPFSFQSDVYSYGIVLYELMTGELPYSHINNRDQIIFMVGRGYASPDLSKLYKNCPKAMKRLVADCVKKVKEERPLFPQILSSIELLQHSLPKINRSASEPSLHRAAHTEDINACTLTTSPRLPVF
Sequence of B-Raf V600E (P15056 whole entry V600E): as the sequence (P15056 whole entry) above, with V600E counted along it
Sequence of CYP2C9 (P11712 whole entry): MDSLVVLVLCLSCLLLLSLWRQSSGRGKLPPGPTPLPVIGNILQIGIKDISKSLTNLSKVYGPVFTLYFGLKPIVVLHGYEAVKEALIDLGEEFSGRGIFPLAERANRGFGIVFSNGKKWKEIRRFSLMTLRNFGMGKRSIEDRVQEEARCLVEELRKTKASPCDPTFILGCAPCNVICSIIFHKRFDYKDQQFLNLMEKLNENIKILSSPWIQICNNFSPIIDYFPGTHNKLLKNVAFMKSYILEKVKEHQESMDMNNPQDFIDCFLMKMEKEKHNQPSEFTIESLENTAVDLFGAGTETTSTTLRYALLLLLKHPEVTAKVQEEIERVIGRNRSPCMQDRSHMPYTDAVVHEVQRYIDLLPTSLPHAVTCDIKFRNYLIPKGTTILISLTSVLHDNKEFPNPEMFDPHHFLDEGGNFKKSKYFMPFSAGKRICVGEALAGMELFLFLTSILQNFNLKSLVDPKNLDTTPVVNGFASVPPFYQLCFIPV

Row | Compound | IC50 (CYP2D6) [µM] | IC50 (CYP3A4(BQ)) [µM] | turbidity threshold (L, M, H) 1.4 [1] | turbidity threshold (L, M, H) 4.5 [1] | turbidity threshold (L, M, H) 6.8 [1] | turbidity threshold (L, M, H) 7.4 [1] | IC50 (CYP3A4(BFC); [4]) [µM] | IC50 (c-Raf-1) [µM] | Biochemical activity ratio B/V600E (B-Raf [2]) | Biochemical activity ratio B/C (B-Raf [2]) | IC50 (B-Raf [3]) [µM] | IC50 (CYP2C19; [5]) [µM] | IC50 (B-Raf V600E) [µM] | Biochemical activity ratio V600E/C (B-Raf V600E) | IC50 (CYP2C9; [6]) [µM] | IC50 (CYP1A2; human, 15 min) [µM] | IC50 (CYP3A4(BFC)) [µM] | IC50 (CYP2C9) [µM] | IC50 (CYP1A2; [7]) [µM] | IC50 (CYP2C19) [µM]
1 | CC(C)Nc1ncnc2[nH]cc(C(=O)c3c(F)ccc(NS(=O)(=O)c4ccc(C(C)C)cc4)c3F)c12 [P-1044, N-[2,4-Difluoro-3-(4-isopropylamino-7H-pyrrolo[2,3-d]pyrimidine-5-carbonyl)-phenyl]-4-isopropyl-benzenesulfonamide] | > 10 | > 10 | M (moderate solubility if the threshold concentration is 31.3 μM to 250 μM) | M (moderate solubility if the threshold concentration is 31.3 μM to 250 μM) | M (moderate solubility if the threshold concentration is 31.3 μM to 250 μM) | M (moderate solubility if the threshold concentration is 31.3 μM to 250 μM) | > 10 | < 0.1 | 0.1-10 | >10 | < 0.1 | < 5 | > 0.1 | >10 | > 10 | > 10 | – | – | – | –
2 | Cc1cc(C)cc(S(=O)(=O)Nc2ccc(F)c(C(=O)c3c[nH]c4ncnc(NC(C)C)c34)c2F)c1 [P-1045, N-[2,4-Difluoro-3-(4-isopropylamino-7H-pyrrolo[2,3-d]pyrimidine-5-carbonyl)-phenyl]-3,5-dimethyl-benzenesulfonamide] | > 10 | > 10 | M (moderate solubility if the threshold concentration is 31.3 μM to 250 μM) | L (low solubility if the threshold concentration is <31.3 μM) | L (low solubility if the threshold concentration is <31.3 μM) | L (low solubility if the threshold concentration is <31.3 μM) | – | < 0.1 | 0.1-10 | >10 | > 0.1 | < 5 | < 0.1 | 0.1-10 | – | – | 5 to 10 | 5 to 10 | > 10 | –
3 | CCCc1ccc(S(=O)(=O)Nc2ccc(F)c(C(=O)c3c[nH]c4ncnc(NC5CCOCC5)c34)c2F)cc1 [P-1046, N-{2,4-Difluoro-3-[4-(tetrahydro-pyran-4-ylamino)-7H-pyrrolo[2,3-d]pyrimidine-5-carbonyl]-phenyl}-4-propyl-benzenesulfonamide] | > 10 | > 10 | M (moderate solubility if the threshold concentration is 31.3 μM to 250 μM) | L (low solubility if the threshold concentration is <31.3 μM) | L (low solubility if the threshold concentration is <31.3 μM) | L (low solubility if the threshold concentration is <31.3 μM) | > 10 | < 0.1 | 0.1-10 | >10 | < 0.1 | > 10 | > 0.1 | >10 | > 10 | > 10 | – | – | – | –
4 | CCCS(=O)(=O)Nc1ccc(F)c(C(=O)c2c[nH]c3ncnc(NC4CCOCC4)c23)c1F [P-1047, Propane-1-sulfonic acid {2,4-difluoro-3-[4-(tetrahydro-pyran-4-ylamino)-7H-pyrrolo[2,3-d]pyrimidine-5-carbonyl]-phenyl}-amide] | > 10 | > 10 | M (moderate solubility if the threshold concentration is 31.3 μM to 250 μM) | L (low solubility if the threshold concentration is <31.3 μM) | L (low solubility if the threshold concentration is <31.3 μM) | L (low solubility if the threshold concentration is <31.3 μM) | > 10 | < 0.1 | 0.1-10 | >10 | < 0.1 | > 10 | < 0.1 | >10 | > 10 | – | – | – | > 10 | –
5 | CN(C)c1ncnc2[nH]cc(C(=O)c3c(F)ccc(NS(=O)(=O)c4ccc(C(F)(F)F)cc4)c3F)c12 [P-1049, N-[3-(4-Dimethylamino-7H-pyrrolo[2,3-d]pyrimidine-5-carbonyl)-2,4-difluoro-phenyl]-4-trifluoromethyl-benzenesulfonamide] | > 10 | > 10 | M (moderate solubility if the threshold concentration is 31.3 μM to 250 μM) | M (moderate solubility if the threshold concentration is 31.3 μM to 250 μM) | M (moderate solubility if the threshold concentration is 31.3 μM to 250 μM) | M (moderate solubility if the threshold concentration is 31.3 μM to 250 μM) | > 10 | > 0.1 | 0.1-10 | >10 | > 0.1 | > 10 | > 0.1 | >10 | > 10 | > 10 | – | – | – | –
6 | O=C(c1c(F)ccc(NS(=O)(=O)c2ccc(C(F)(F)F)cc2)c1F)c1c[nH]c2ncnc(NC3COC3)c12 [P-1050, N-{2,4-Difluoro-3-[4-(oxetan-3-ylamino)-7H-pyrrolo[2,3-d]pyrimidine-5-carbonyl]-phenyl}-4-trifluoromethyl-benzenesulfonamide] | > 10 | > 10 | H (high solubility if the threshold concentration is >250 μm) | M (moderate solubility if the threshold concentration is 31.3 μM to 250 μM) | M (moderate solubility if the threshold concentration is 31.3 μM to 250 μM) | M (moderate solubility if the threshold concentration is 31.3 μM to 250 μM) | > 10 | < 0.1 | 0.1-10 | >10 | < 0.1 | > 10 | < 0.1 | >10 | > 10 | – | – | – | > 10 | –
7 | O=C(c1c(F)ccc(NS(=O)(=O)c2ccc(C(F)(F)F)cc2)c1F)c1c[nH]c2ncnc(NCC3CC3)c12 [P-1052, N-{3-[4-(Cyclopropylmethyl-amino)-7H-pyrrolo[2,3-d]pyrimidine-5-carbonyl]-2,4-difluoro-phenyl}-4-trifluoromethyl-benzenesulfonamide] | > 10 | > 10 | L (low solubility if the threshold concentration is <31.3 μM) | L (low solubility if the threshold concentration is <31.3 μM) | L (low solubility if the threshold concentration is <31.3 μM) | L (low solubility if the threshold concentration is <31.3 μM) | – | < 0.1 | 0.1-10 | >10 | < 0.1 | < 5 | < 0.1 | >10 | < 5 | – | 5 to 10 | – | > 10 | –
8 | O=C(c1c(F)ccc(NS(=O)(=O)c2ccc(C(F)(F)F)cc2)c1F)c1c[nH]c2ncnc(OCC3CC3)c12 [P-1053, N-[3-(4-Cyclopropylmethoxy-7H-pyrrolo[2,3-d]pyrimidine-5-carbonyl)-2,4-difluoro-phenyl]-4-trifluoromethyl-benzenesulfonamide] | > 10 | > 10 | L (low solubility if the threshold concentration is <31.3 μM) | L (low solubility if the threshold concentration is <31.3 μM) | L (low solubility if the threshold concentration is <31.3 μM) | L (low solubility if the threshold concentration is <31.3 μM) | > 10 | < 0.1 | 0.1-10 | 0.1-10 | < 0.1 | – | > 0.1 | >10 | – | > 10 | – | 5 to 10 | – | 5 to 10
